Values of other authors, collected in publication PMC3985708 (Biochemistry, 2014).

Key:
unmodified hASL^Lys3 = settings: read-out: Kd of NCp7 for unmodified ASL
modified hASL^Lys3UUU = settings: read-out: Kd, modified hASL^Lys3UUU; Kd value from previous studies

In the case of “NCp7: HIV-1 nucleocapsid protein 7 (MQRGNFRNQRKIVKCFNCGKEGHTARNCRAPRKKGCWKCGKEGHQMKDCTERQAN; Nucleocapsid protein p7; UniProt P04591 378-432, looked up)”, the “Increase of NCp7 affinity for hASL^Lys3 by the modifications” value (modified hASL^Lys3; modified versus unmodified ASL) is listed as ~10 fold, the Kd (modified hASL^Lys3; read-out: Kd of NCp7 for modified ASL, modified hASL^Lys3) is listed as 280 ± 30 nM and the Kd (unmodified hASL^Lys3) is listed as 2300 ± 620 nM.
In the case of RVTHHAFLGAHRTVG [P6], the Kd (modified hASL^Lys3UUU) is listed as 500 ± 100 nM.
